Assay results taken from patent US20160310519A1, “MODIFIED G-QUADRUPLEX NANOPARTICLES” (NANYANG TECHNOLOGICAL UNIVERSITY, priority 2013, published 2016).

Key:
[1] = CD melting experiments of multiple N2-modified G-quadruplexes in low salt; type: physicochemical; settings: low salt (1 mM KPi+1 mM KCl), CD at 290 nm
Experimental: CD melting experiments were performed for the unmodified sequence and for sequences containing multiple N2-modifications. Samples contained 4-5 μM DNA by strand concentration in 1 mM KCl and 1 mM KPi. Samples were heated to 95° C. (98° C. for N2-Ball-with-Hair sample) and cooled to 15° C. at a rate of 0.2° C./min. Samples were then heated in a similar manner. Data was recorded every 0.5° C. at 290 nm and corrected by subtraction at 320 nm. Normalized melting curves are used to determine the melting temperature (Tm) of modified sequences, which is taken as an average of the heating and cooling curves.
The designed sequences were tested in a “low salt” solution of 1 mM KPi+1 mM KCl. Of the sequences tested with multiple modifications, SEQ ID Nos. 38, 39, 41 and 42 were determined to maintain the (3+1) conformation by analysis of ^1H NMR and CD spectra, which were highly similar to SEQ ID NO:1 (FIG. 4).
Additionally, these changes in stability were roughly equivalent to the sum of stability changes observed for the individual single-position substitutions.

[2] = Temperature dependent CD spectra under physiological salt conditions; type: physicochemical
Experimental: Spectra were recorded on a JASCO-815 spectropolarimeter (Tokyo, Japan). Samples contained a DNA strand concentration of 4-5 μM. […] Spectra were normalized through subtracting by the CD absorbance at 320 nm and dividing by concentration of the sample determined by concurrent UV absorption measurements. Samples were annealed prior to recording of CD spectra by heating to 100° C. and allowed to cool slowly at room temperature.
The stability of the “Ball with Hair” structure formed by SEQ ID NO:42 under “physiological salt” conditions (10 mM Kpi+130 mM KCL) was similar to those experienced in a cellular environment. NMR spectra of SEQ ID NO:42 under physiological salt conditions matched the spectra recorded in low salt conditions.

Row | Substance | Δ Tm [1] | melting temperature [1] [°C] | Δ Tm ([1]; listed as ball with hair) [°C] | melting temperature ([2]; physiological K+ conditions (10 mM KPi+130 mM KCl)) [°C] | CD signal intensity observed at 95° C. ([2]; physiological salt (10 mM KPi+130 mM KCl), 95° C.)
1 | SEQ ID NO:38: contains two ^HexG substitutions into separate grooves in positions that were highly stabilizing in the single-substitutions studies (TTNGGTTANGGTTAGGGTTAGGGA; two N2-hexyl guanine modifications, chemistry not fully specified) | +6.9 °C | – | – | – | –
2 | SEQ ID NO:43: contains a variety of 8 N2-modifications aimed to maximize the thermal stability (TTNGGTTANGNTTANGNTTANGNA; DNA, backbone and the base at N not given here; further chemistry not fully specified) | +35.6 °C | – | – | – | –
3 | SEQ ID NO:42: containing eight ^HexG modifications towards the design of a "Ball with Hair" type of nanoparticle (TTNNGTTANGNTTANGNTTAGNNA; eight N2-hexyl guanine modifications, chemistry not fully specified) | +46.2 °C | 91.7 | 46 | > 95 | more than 80%
4 | SEQ ID NO:41: designed to contain a modification in each groove of the G-quadruplex nanoparticle (TTNGGTTANGNTTANGGTTAGGGA; DNA, backbone and the base at N not given here; N2-modified guanines at marked positions) | +26.6 °C | – | – | – | –
5 | SEQ ID NO:39: contains two ^MetG substitutions of guanines that neighbors within the wide groove (TTGGGTTAGNNTTAGGGTTAGGGA; two N2-methyl guanine modifications, chemistry not fully specified) | +18.2 °C | – | – | – | –
